# Assay results from patent US11091447B2, “UBE2K modulators and methods for their use” (Berg LLC, priority 2020, dated 2021).
# Tested on: MIA PaCa-2 cells
# Test: Cellular viability assay (Cell Titer Fluor)
# Assay type: cell-based
# Conditions: 72 hours incubation
# Method: Cell viability were performed using the Cell Titer Fluor™ Assays (Promega G6080). MIA PaCa-2 cells are grown in DMEM media with 10% FBS, 1% Pen/Strep/Amphotericin B. Cells are trypsinized and counted using the Nexcelom cellometer. 5,000 cells/100 μl are plated per well in Greiner black/clear 96-well plates. Cells should be within 10 passages of stock vial for use in workflow. Three distinct lineages of these cells are cultured in parallel for multiple passages and 5 full plates of each lineage are seeded for one run. Small molecule compounds are provided as 100 mM stock solutions in DMSO. Dilution series plates are prepared using 1:3 dilution to achieve a 7 point concentration on a half log scale. After addition of compounds, cells are incubated 37° C., 5% CO2 for 72 hours.
# For each test compound condition, triplicate technical replicates are used. For each reference compound, duplicate technical replicates are used. At the end of the 72-hour incubation, spent media is discarded. Then, 100 μl of GF-AFC diluted in DMEM (serum and phenol red-free) is added at 1:2000 concentration (5 μl/10 ml). Cells are incubated with reaction buffer for 1 h at 37° C. Fluorescence is then read on the plate reader with excitation wavelength of 390 nm and emission wavelength of 505 nm. All raw data are analyzed on Microsoft Excel 2010 and normalized to the DMSO vehicle control. Relative results are copied into GraphPad Prism for non-linear regression analysis and determination of IC50 and other dose curve parameters (min, max, Hill slope, etc.) using the log (inhibitor) vs. response equation. Values are as follows: A represents an IC50 of <[…], B represents an IC50 of 1 mM to 10 mM, C represents an IC50 of >10 mM.
row,IC50,SMILES
1,> 10 µM,O=C(NCc1cc(-c2cc(F)ccc2O)[nH]n1)c1ccccc1OC(F)(F)F [Compound 52]

# Same assay, conditions: Homo sapiens, 72 hours incubation
row,SMILES,IC50
1,"COc1ccc(F)cc1-c1nc(CNC(=O)c2ccccc2OC(F)(F)F)n[nH]1 [Compound 127, N-((5-(5-fluoro-2-methoxyphenyl)-1H-1,2,4-triazol-3-yl)methyl)-2-(trifluoromethoxy)benzamide]",< 1 µM

# Same assay, conditions: Homo sapiens, MIA PaCa-2, 72 h, 72 hours incubation
row,IC50,SMILES
1,> 10 µM,COc1cccc(-c2cc(CNC(=O)c3ccccc3OC(F)(F)F)n[nH]2)c1OC [Compound 114]
2,< 1 µM,N#Cc1ccc(N2CCCC(F)(F)C2)c(C(=O)NCc2cc(-c3cccs3)[nH]n2)c1 [Compound 85]
3,< 1 µM,CC(C)Oc1ccc(F)cc1-c1cc(CNC(=O)c2cc(F)ccc2N2CCCCC2)n[nH]1 [Compound 93]
4,< 1 µM,CCOc1ccccc1-c1nc(CNC(=O)c2ccccc2OC(F)F)n[nH]1 [Compound 58]
5,< 1 µM,"COc1ccc(F)cc1-c1nc(CNC(=O)c2cccc(F)c2OC(F)F)n[nH]1 [Compound 135, 2-(difluoromethoxy)-3-fluoro-N-((5-(5-fluoro-2-methoxyphenyl)-1H-1,2,4-triazol-3-yl)methyl) benzamide]"
6,1 to 10 µM,N#Cc1ccc(N2CCCC2)c(C(=O)NCc2cc(-c3cccs3)[nH]n2)c1 [Compound 84]
7,> 10 µM,COc1ccc(OC)c(-c2cc(CNC(=O)c3ccccc3OC(F)(F)F)n[nH]2)c1 [Compound 39]
8,< 1 µM,O=C(NCc1cc(-c2cccs2)[nH]n1)c1ccccc1N1CCOCC1 [Compound 69]
9,< 1 µM,O=C(NCc1n[nH]c(-c2cc(F)ccc2O)n1)c1ccccc1OC(F)(F)F [Compound 130]
10,1 to 10 µM,COc1ccc(F)cc1-c1nc(CNC(=O)c2cnccc2OC(F)F)n[nH]1 [Compound 147]
11,< 1 µM,CCOc1ccc(F)cc1-c1cc(CNC(=O)c2cc(F)ccc2N2CCCC2)n[nH]1 [Compound 92]
12,> 10 µM,O=C(NCc1n[nH]c(-c2cccs2)n1)c1ccccc1OC(F)(F)F [Compound 14]
13,< 1 µM,"COc1ccccc1-c1nc(CNC(=O)c2cc(F)ccc2OC(F)F)n[nH]1 [Compound 138, 2-(difluoromethoxy)-5-fluoro-N-((5-(2-methoxyphenyl)-1H-1,2,4-triazol-3-yl)methyl) benzamide]"
14,> 10 µM,O=C(NCc1cc(-c2cccs2)[nH]n1)c1ccccc1OC(F)F [Compound 4]
15,< 1 µM,COc1ccc(F)cc1-c1nc(CNC(=O)c2cc(F)ccc2OC(F)F)n[nH]1 [Comp 137]
16,1 to 10 µM,O=C(NCc1cc(-c2cccs2)[nH]n1)c1cccc(C(F)(F)F)c1N1CCCC1 [Compound 82]
17,> 10 µM,O=C(NCc1cc(-c2cccc3cn[nH]c23)[nH]n1)c1ccccc1OC(F)(F)F [Compound 29]
18,> 10 µM,"COc1ccccc1-c1cc(S(=O)(=O)NC(=O)c2ccccc2OC(F)F)n[nH]1 [Compound 121, 2-(difluoromethoxy)-N-((5-(2-methoxyphenyl)-1H-pyrazol-3-yl)sulfonyl) benzamide]"
19,> 10 µM,"COc1ccccc1-c1cc(S(=O)(=O)NC(=O)c2ccccc2OC(F)(F)F)n[nH]1 [Compound 122, N-[[5-(2-methoxyphenyl)-1H-pyrazol-3-yl]sulfonyl]-2-(trifluoromethoxy)benzamide]"
20,1 to 10 µM,Cc1cccc(C(=O)NCc2cc(-c3cccs3)[nH]n2)c1N1CCC(F)(F)C1 [Compound 97]
21,> 10 µM,COc1cnccc1-c1cc(CNC(=O)c2ccccc2OC(F)(F)F)n[nH]1 [Compound 37]
22,1 to 10 µM,"COc1cccnc1-c1nc(CNC(=O)c2ccccc2OC(F)(F)F)n[nH]1 [Compound 34, N-((5-(3-methoxypyridin-2-yl)-1H-1,2,4-triazol-3-yl)methyl)-2-(trifluoromethoxy)benzamide]"
23,< 1 µM,O=C(NCc1cc(-c2cccs2)[nH]n1)c1ccccc1N1CCCCCC1 [Compound 103]

row,IC50,SMILES
1,> 10 µM,O=C(NCc1cc(-c2cccs2)[nH]n1)c1cccnc1N1CC(F)(F)C1 [Compound 88]
2,1 to 10 µM,"COc1ccccc1-c1nc(S(=O)(=O)NC(=O)c2ccccc2OC(F)F)n[nH]1 [Compound 124, 2-(difluoromethoxy)-N-((5-(2-methoxyphenyl)-1H-1,2,4-triazol-3-yl)sulfonyl) benzamide]"
3,< 1 µM,COc1ccccc1-c1nc(CNC(=O)c2ccccc2OC(F)(F)F)n[nH]1 [Compound 125]
4,1 to 10 µM,CN1CCN(c2ccccc2C(=O)NCc2cc(-c3cccs3)[nH]n2)CC1 [Compound 71]
5,> 10 µM,O=C(NCc1cc(-c2ccn[nH]2)[nH]n1)c1ccccc1OC(F)(F)F [Compound 25]
6,< 1 µM,O=C(NCc1cc(-c2ccccc2O)[nH]n1)c1cc(F)ccc1N1CCCCC1 [Compound 101]
7,> 10 µM,"O=C(NCc1cc(-c2cc(O)ccc2O)[nH]n1)c1ccccc1OC(F)(F)F [Compound 40, N-((5-(2,5-dihydroxyphenyl)-1H-pyrazol-3-yl)methyl)-2-(trifluoromethoxy) benzamide]"
8,1 to 10 µM,"COc1c(O)cccc1-c1nc(CNC(=O)c2ccccc2OC(F)F)n[nH]1 [Compound 62, 2-(difluoromethoxy)-N-((5-(3-hydroxy-2-methoxyphenyl)-1H-1,2,4-triazol-3-yl)methyl) benzamide]"
9,> 10 µM,O=C(NCc1cc(-c2cc(F)cc(F)c2O)[nH]n1)c1ccccc1OC(F)(F)F [Compound 50]
10,1 to 10 µM,O=C(NCc1n[nH]c(-c2cc(O)ccc2O)n1)c1ccccc1OC(F)F [Compound 64]
11,< 1 µM,COc1ccccc1-c1nc(CNC(=O)c2cc(C#N)ccc2OC(F)F)n[nH]1 [Compound 140]
12,< 1 µM,O=C(NCc1cc(-c2cccs2)[nH]n1)c1ccccc1N1CCC(F)(F)C1 [Compound 66]
13,> 10 µM,O=C(NCc1cc(-c2cccs2)[nH]n1)c1ccccc1OC(F)(F)F [Compound 5]
14,< 1 µM,COc1ccccc1-c1cc(CNC(=O)c2ccccc2OC(F)(F)F)n[nH]1 [Compound 31]
15,> 10 µM,O=C(NCc1n[nH]c(-c2cccs2)n1)c1ccccc1CC(F)(F)F [Compound 8]
16,< 1 µM,CCOc1ccc(F)cc1-c1cc(CNC(=O)c2cc(F)ccc2N2CCCCC2)n[nH]1 [Compound 99]
17,> 10 µM,COc1ccc(C(F)(F)F)cc1-c1cc(CNC(=O)c2ccccc2OC(F)(F)F)n[nH]1 [Compound 20]
18,> 10 µM,O=C(NCc1cc(-c2cccc(O)c2O)[nH]n1)c1ccccc1OC(F)(F)F [Compound 43]
19,< 1 µM,O=C(NCc1cc(-c2cccs2)[nH]n1)c1cc(C(F)(F)F)ccc1N1CCCC(F)(F)C1 [Compound 78]
20,> 10 µM,O=C(NCc1n[nH]c(-c2cccs2)n1)c1ccccc1NCC(F)F [Compound 73]
21,> 10 µM,O=C(NCc1cc(-c2ccsc2Cl)[nH]n1)c1ccccc1OC(F)(F)F [Compound 22]
22,1 to 10 µM,COc1ccccc1-c1nc(CNC(=O)c2cnccc2OC(F)F)n[nH]1 [Compound 148]
23,> 10 µM,O=C(NCc1n[nH]c(-c2cccs2)n1)c1nccnc1N1CCCC(F)(F)C1 [Compound 90]
